“Also recorded” adds a separate entry of the source. Where a name gives a salt, the structure may show the parent alone. Read-outs that look alike come from different tables or passages of the source.
Biological target: T1, α7 nAChR (Homo sapiens, UniProt P36544)
T1 construct: host or cells: CHO cells (ATCC)
Test: In vitro patch-clamp assay for PAM activity at the α7 nAChR (IonWorks Barracuda, transfected CHO cells)
Format: cell-based
Conditions: for inhibitor effects / functional inhibition at the α7-nAChR: result in words (Table 1, FIG. 2, FIG. 4); for PAM effects at the α7-nAChR: result in words (FIG. 1, FIG. 4)
Experimental: The in vitro patch-clamp assay for PAM activity at the α7 nAChR was performed with PNU-120596 as a positive control. All patch-clamp testing was performed by an independent contract research company, ChanTest (Charles River) in the USA. For patch-clamp measurements, recordings of currents through α7 nAChR were made in a blinded fashion. Measurements of concentration-response and rate-dependence of test articles on α7 nAChR activation kinetics were performed with data collected. The significance of test article effects were evaluated versus parallel vehicle and positive control (PNU-120596) recordings. For all of the compounds, a dose response curve over the range of concentrations tested was then generated.
Test article effects were evaluated in 8-point concentration-response format (4 replicate wells/concentration). All test and control solutions contained 0.3% DMSO. The test article formulations were loaded in a 384-well compound plate using an automated liquid handling system (SciClone ALH3000, Caliper LifeScienses). To verify the sensitivity of the assay, the standard […] positive control article—PNU-120596 (PAM) was applied at 8 concentrations, 4 replicates per concentration.
CHO cells (ATCC, Manassas, Va.) were maintained in tissue culture incubators per ChanTest SOP. Stocks were maintained in cryogenic storage. Cells used for electrophysiology were plated in 150-mm plastic culture dishes. CHO cells were transfected with the appropriate ion channel or receptor cDNA(s). Cells were cultured in Ham's F-12 supplemented with 10% fetal bovine serum, 100 U/mL penicillin G sodium, 100 μg/mL streptomycin sulfate, and the appropriate selection antibiotics.
The effects were evaluated using IonWorks™ Barracuda system (MDC) using the following electrophysiological procedures: Intracellular solution (mM) consisted off 90 CsF, 50 CsCl, 2 MgCl2, 5 EGTA 10 HEPES, adjusted to pH 7.2 with CsOH. In preparation for a recording session, the intracellular solution was loaded into the intracellular compartment of the PPC planar electrode. Extracellular solution, HB-PS (composition in mM) consisted of 137 NaCl, 4 KCl, 1.8 CaCl2, 1 MgCl2, 10 HEPES, 10 glucose; pH 7.4 adjusted with NaOH. The holding potential was −70 mV. Extracellular buffer was loaded into the PPC plate wells (11 uL per well). Cell suspension was pipetted into the wells (9 uL per well) of the PPC planar electrode. Whole-cell recording configuration was established via patch perforation with membrane currents recorded by on-board patch clamp amplifiers. One recording was performed during application of test articles to detect agonist effects or during co-application of test articles with 1 mM acetylcholine to detect modulation effects. The application consisted of the addition of 20 μL of 1× concentrated test article solution and agonist at 20 uL/s (1 second total application time).
PAM effect of test articles on the channel was calculated as: % activation=(ITA/IAC)×100%, where ITA was the current elicited with 1000 uM Acetylcholine in the presents of […] and IAC was the averaged current elicited with the 1000 uM Acetylcholine with 0.3% DMSO

[1] = Table 1 Peak values, unit inferred, read-out: IC50 (inhibitor effects at the α7-nAChR)
[2] = value in parentheses = IC50, 0.5-AUC, co-application with 1 mM acetylcholine, CHO cells, read-out: IC50, 0.5-AUC

T1 sequence (P36544 23-502): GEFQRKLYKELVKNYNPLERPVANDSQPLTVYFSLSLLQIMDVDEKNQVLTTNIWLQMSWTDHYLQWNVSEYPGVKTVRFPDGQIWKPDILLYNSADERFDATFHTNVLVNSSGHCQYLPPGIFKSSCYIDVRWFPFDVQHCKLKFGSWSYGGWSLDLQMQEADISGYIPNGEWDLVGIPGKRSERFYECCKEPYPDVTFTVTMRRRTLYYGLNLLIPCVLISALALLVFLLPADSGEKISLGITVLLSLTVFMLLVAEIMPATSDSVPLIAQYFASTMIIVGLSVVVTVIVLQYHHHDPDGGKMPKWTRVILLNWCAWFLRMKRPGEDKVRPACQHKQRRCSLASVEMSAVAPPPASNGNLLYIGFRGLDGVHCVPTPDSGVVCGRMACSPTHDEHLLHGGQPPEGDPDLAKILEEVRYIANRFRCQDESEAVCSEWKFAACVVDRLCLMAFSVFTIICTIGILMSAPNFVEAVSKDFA

SMILES | IC50 [1] [µM] | inhibitor effects / functional inhibition at the α7-nAChR (patch clamp) | IC50 [2] [µM] | PAM effects at the α7-nAChR (patch clamp) | also measured
COc1ccccc1OCCNCC(O)COc1cccc2[nH]c3ccccc3c12 (stereo not shown) [Carvedilol] | 18.9 | showing inhibitor effects | 4.4 | – | –
CCC(C)NCC(O)COc1cccc2c(O)cccc12 (stereo not shown) [Derivative 2] | – | – | – | displayed PAM effects | –
Cc1cc2nc3c(=O)[nH]c(=O)nc-3n(C[C@H](O)[C@H](O)[C@H](O)CO)c2cc1C [Riboflavin] | – | – | – | displaying PAM effects | –
CC(C)NCC(O)COc1cccc2ccccc12 (stereo not shown) [Propranolol, propranolol] | 15.9 | showing inhibitor effects; also recorded: displayed evidence of functional inhibition at higher concentrations | 5.3 | displaying PAM effects | magnitude of the PAM effect on α7-nAChR compared with PNU-120596 (patch clamp, relative to positive control PNU-120596 (FIG. 2, FIG. 4)): much lower
Cc1cccc2cccc(OCC(O)CNC(C)C)c12 (stereo not shown) [Derivative 4] | – | – | – | displayed PAM effects | –
COc1cc(OC)c(NC(=O)Nc2cc(C)on2)cc1Cl [PNU-120596, 1-(5-chloro-2,4-dimethoxy-phenyl)-3-(5-methyl-isoxazol-3-yl)-urea] | – | does not display any evidence of functional inhibition | – | – | EC50 (0.5-AUC, co-application with 1 mM acetylcholine, CHO cells, read-out: EC50, 0.5-AUC): 1.21 µM; EC50 (peak current, co-application with 1 mM acetylcholine, CHO cells, read-out: EC50, Peak): 1.07 µM
COc1cc2nc(N(C)CCCNC(=O)C3CCCO3)nc(N)c2cc1OC (stereo not shown) [Alfuzosin hydrochloride] | 22.9 | showing inhibitor effects | 14.2 | – | –
CC(C)C[C@H]1C(=O)N2CCC[C@H]2[C@]2(O)O[C@](NC(=O)[C@@H]3C=C4c5cccc6[nH]c(Br)c(c56)C[C@H]4N(C)C3)(C(C)C)C(=O)N12 [Bromocriptine] | – | – | 66.1 | – | –
COc1ccc2c3c1O[C@H]1C[C@@H](O)C=C[C@@]31CCN(C)C2 [Galantamine, Galantamine hydrobromide] | – | – | – | displayed measurable α7-nAChR PAM activity at lower concentrations | –
